Test results: US20120269725A1, “TARGETED RADIOLABELED COMPOUNDS AND THEIR USE FOR THE TREATMENT AND DIAGNOSIS OF CANCER” (priority 2009, published 2012)
Where two headings read alike, the source gives them in different places.

Experiments:
human BChE = human BChE (Homo sapiens, UniProt P06276); test: UV-based BChE inhibition (IC50) assay; assay type: biochemical; conditions: non-radioactive compounds, 30 min preincubation, room temperature, pH 7.0
Protocol: Assays employed to determine IC50 were developed by the present inventors and utilized UV based detection. For UV-based assays, a BChE solution in 0.1 M potassium phosphate, pH 7.0 was placed in the desired numbers of wells of a 96-well plate (0.05 mL/well). The investigated compound was diluted in DMSO to produce concentrations from 0 to 10 μM in DMSO and 0.002 mL/well of these dilutions was added to BChE-containing wells. Reaction mixtures were incubated at room temperature for 30 min. The reagent consisting of BChE substrate, 1 mM (2-mercaptoethyl)trimethylammonium iodide butyrate, and 0.5 mM 5,5′-dithio-bis(2-nitrobenzoic acid) in 0.1 M potassium phosphate, pH 7.0 (prepared fresh for each assay) was added, 0.25 mL per well. The mixture was incubated at room temperature and the OD at λ=405 nm was read at 1, 2, 3, 4, 5, 10, and 15 min after the addition of this reagent using the Opsys MR™plate reader (Dynex Technologies, Chantilly, Va.). Data were analyzed using the IC50 nonlinear regression function provided by GraphPad Prism (GraphPad Software, La Jolla, Calif.).
The compound binding of several non-radioactive compounds of the method of the invention were analyzed by the aforementioned human BChE compound binding study to determine their affinity for the therapeutic target (Table 1).

IP OVCAR-3 tumors = test: Pilot therapy of IP OVCAR-3 tumors in athymic mice; assay type: in vivo; conditions: for whole body retention, median / whole body retention: after 14 days; for whole body retention: value with spread in brackets
Source text: In pilot therapy experiments, the effects of unmodified ^125IUdR on the growth of IP OVCAR-3 tumors were compared to the therapeutic effects of the 6b diastereomeric mixture and 7b diastereomeric mixture. The tumor model used in this study, OVCAR-3 cell line, was established from the malignant ascites of a patient with progressive adenocarcinoma of the ovary after many types of chemotherapy including cyclophosphamide, adriamycin, and cisplatin. OVCAR-3 is resistant in vitro to clinically relevant concentrations of adriamycin, melphalan, and cisplatin (Hamilton T C, Young R C, Louie K G, Behrens B C, McKoy W M, Grotzinger K R, Ozols R F. Characterization of a xenograft model of human ovarian carcinoma which produces ascites and intraabdominal carcinomatosis in mice. Cancer Res. 1984; 44:5286-90.). In immunodeficient mice, IP injected OVCAR-3 cells produce malignant ascites, peritoneal carcinomatosis, and serosal and visceral seeding that, if left untreated, leads to death from respiratory compromise, hemorrhage from invasion of intra-abdominal blood vessels, and bowel obstruction. Substantial literature data (nearly 100 publications) confirm that this tumor model has pathogenesis and metastatic properties similar to those of human ovarian cancer.
Mice received IP implants of approximately 2.4×10^8 OVCAR-3 cells/mouse isolated from fresh OVCAR-3 mouse ascites. Cell viability was measured before and after injection, and was ≧90%. Four days after tumor cells were implanted, the mice received SQ transponders and were randomized via a lottery into four groups: NT—untreated controls that received IP injection of PBS; 7b group—receiving IP doses of the 7b diastereomeric mixture in PBS (average 0.4 mCi/mouse (14.8 MBq)); 6b group—receiving IP doses of the 6b diastereomeric mixture in PBS (average dose 0.36 mCi/mouse (13.3 MBq)); and ^125IUdR group—receiving IP doses of ^125IUdR (average 0.43 mCi/mouse (15.9 MBq)) in PBS. Mice were monitored three times per week.
Mice in the 6b group received 0.22 mCi (8.1 MBq) 6b diastereomeric mixture on day 27; and on day 28 mice in ^125IUdR group were treated with additional 0.2 mCi (7.4 MBq) ^125IUdR. Slight differences in the dosing schedule and the administered doses are because of the required large quantities of the compounds. For these experiments, ˜20 mCi of no-carrier added and radiochemically pure compounds were required. Each agent was purified on the analytical reversed phase HPLC column. The use of preparative columns in this case is impractical because the products are recovered in large volumes of acetonitrile-containing solvent that must be evaporated to dryness before the use in mice.
Overall, mice in the 7b group were treated with an average of 0.58 mCi (21.5 MBq) 7b diastereomeric mixture; mice in the 6b group were treated with an average of 0.58 mCi (21.5 MBq) 6b diastereomeric mixture, and mice in the ^125IUdR group were treated with an average of 0.63 mCi (23.3 MBq) ^125IUdR.
The therapy was terminated 7 weeks after the first dosing. Mice were sacrificed for the biodistribution study. Blood and solid tumor were taken for the evaluation of their radioactive content. The peritoneal cavity was lavaged with 2-mL aliquots of PBS, and PBS wash and ascites were collected. One mL of the ascites suspension with cancer cells was taken for gamma counting. The rest of the abdominal fluid was centrifuged and 0.5 mL of the supernatant was reserved for gamma counting. The weight of the cell pellet and the supernatant were determined.
Two weeks after the first dose of radiolabeled compounds, the whole body radioactivity was measured to determine to what extent the additional doses of the compounds may increase the radiation burden and therefore may be detrimental to the animal health (FIG. 11B). The absolute amounts were low and ranged from […] for the 6b group to […] in the 7b group. […]

[1] = system: subcutaneous LS174T tumors (human colorectal adenocarcinoma); test: Biodistribution, clearance and planar imaging in athymic mice bearing subcutaneous LS174T xenografts; assay type: in vivo, athymic NCr-nu/nu mice
Protocol: The in vivo properties and pharmacology of several compounds of the present invention were initially tested in athymic mice bearing subcutaneous LS174T tumors (human colorectal adenocarcinoma), which have several desirable properties such as rapid growth when implanted subcutaneously (SQ), good vascularization and the availability of considerable historical data for the parent compound IUdR. The clearance rates from blood, tumor, and associated organs were analyzed to determine the structure-pharmacokinetics relationship. The first compounds studied were 6b-fast and 6b-slow. Four-to-six-weeks old female athymic NCr-nu/nu mice (NCI-Frederic, Md., USA) were allowed to acclimate in Applicants' facility after delivery for no less than 5 days. All protocols involving animals were approved by the University of Nebraska Institutional Animal Care and Use Committee. Mice were housed in microisolator cages with free access to sterilized standard rodent diet and water. LS174T cells in 0.1 mL of serum-free medium were implanted SQ at 5×10^6 cells/mouse. One week later identification transponders were implanted, also SQ. Body weights and tumor sizes were monitored twice weekly, and approximately 10 days after the cell implant, mice were randomized for biodistribution studies.
Each of the two isomers, 6b-fast and 6b-slow, was tested independently in separate groups of mice. The comparison to the parent compound, IUdR, was made by co-injecting ^131IUdR with a particular ^125I-labeled diastereomer. Compounds were administered intravenously (IV) via a tail vein.
Biodistribution was conducted at 1 h, 4 h, 24 and 48 h after the administration of radiolabeled compounds (n=6 per time point). The injection doses contained approximately 1 μCi (37 kBq) ^131IUdR and 5 μCi (185 kBq) ^125I-labeled 6b-fast or 6b-slow dissolved in 0.2 mL phosphate buffered saline containing 0.1% bovine serum albumin, pH 7.2 (PBS). All syringes were weighted after loading with the compound solution and immediately after the injection to determine the weight of the injected dose. Triplicate standards of the injected dose were prepared in PBS and counted in a gamma counter just before the beginning of the experiment. The radioactive content of these standards was also determined alongside all tissues after the necropsy to correct the tissue uptake for the decay of the radioisotope. Blood, liver, spleen, heart, lungs, kidneys, brain, tumor and tail were collected during necropsy. Tissues were rinsed in ice-cold saline, patted dry and weighed. The tail was collected to validate the quality of the IV injections.
FIG. 7 presents whole body images for a typical time course distribution (24 h, 48 h, and 72 h) of 6b administered as a diastereomeric mixture in LS174T-bearing athymic mice. The images were acquired 1, 2, and 3 days after the administration of the compound. […] It is also apparent that based on pharmacokinetics, the use of these compounds can be tailored to a specific malignancy and its anatomical location.

human BChE, sequence (P06276 29-602): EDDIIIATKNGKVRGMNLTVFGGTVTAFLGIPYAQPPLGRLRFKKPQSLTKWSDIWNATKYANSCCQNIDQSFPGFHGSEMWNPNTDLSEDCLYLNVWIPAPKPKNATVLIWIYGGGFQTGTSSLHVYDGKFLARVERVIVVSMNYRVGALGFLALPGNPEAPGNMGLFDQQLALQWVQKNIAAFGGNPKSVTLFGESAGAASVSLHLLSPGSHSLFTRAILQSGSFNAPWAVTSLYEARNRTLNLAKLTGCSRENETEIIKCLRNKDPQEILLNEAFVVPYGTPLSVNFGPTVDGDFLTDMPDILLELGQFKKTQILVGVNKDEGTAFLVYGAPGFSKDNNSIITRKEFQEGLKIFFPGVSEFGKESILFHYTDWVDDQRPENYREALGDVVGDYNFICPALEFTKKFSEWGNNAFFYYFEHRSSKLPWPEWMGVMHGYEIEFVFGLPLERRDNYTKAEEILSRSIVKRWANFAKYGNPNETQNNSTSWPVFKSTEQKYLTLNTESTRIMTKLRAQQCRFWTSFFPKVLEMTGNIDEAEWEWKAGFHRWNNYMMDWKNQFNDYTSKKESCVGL

| SMILES | IC50 (human BChE; IC50 (nM)) [nM] | other results |
| --- | --- | --- |
| O=c1[nH]c(=O)n(C2CC(O)C(COP3(=O)OCc4ccccc4O3)O2)cc1I (single isomer, unassigned) [6 - fast, 5-Iodo-5′-O-cycloSaligenyl-2′-deoxyuridine Monophosphate] | 1280 |  |
| O=c1[nH]c(=O)n(C2CC(O)C(COP3(=O)OCc4ccccc4O3)O2)cc1I (single isomer, unassigned) [6 - slow, 5-Iodo-5′-O-cycloSaligenyl-2′-deoxyuridine Monophosphate] | 9.2 |  |
| Cc1cccc2c1OP(=O)(OCC1OC(n3cc(I)c(=O)[nH]c3=O)CC1O)OC2 (single isomer, unassigned) [7 - fast, 5-Iodo-5′-O-cyclo(3-methylSaligenyl)-2′-deoxyuridine Monophosphate] | > 7000 |  |
| Cc1cccc2c1OP(=O)(OCC1OC(n3cc(I)c(=O)[nH]c3=O)CC1O)OC2 (single isomer, unassigned) [7 - slow, 5-Iodo-5′-O-cyclo(3-methylSaligenyl)-2′-deoxyuridine Monophosphate] | 61.2 |  |
| CC(C)(C)c1cc(C(C)(C)C)c2c(c1F)COP(=O)(OC[C@H]1O[C@@H](n3cc(I)c(=O)[nH]c3=O)C[C@@H]1O)O2 (single isomer, unassigned) [8 - fast, 5-Iodo-5′-O-[cyclo-3,5-di-(tert-butyl)-6-fluoroSaligenyl]-2′-deoxyuridine Monophosphate] | > 60000 |  |
| Cc1cn(C2CC(F)C(COP3(=O)OCc4c(F)c(C(C)(C)C)cc(C(C)(C)C)c4O3)O2)c(=O)[nH]c1=O (single isomer, unassigned) [23 - fast, 5′-O-[cyclo-3,5-Di-(tert-butyl)-6-fluoroSaligenyl]-3′-deoxy-3′-fluorothymidine Monophosphate] | 203 |  |
| Cc1cn(C2CC(F)C(COP3(=O)OCc4c(F)c(C(C)(C)C)cc(C(C)(C)C)c4O3)O2)c(=O)[nH]c1=O (single isomer, unassigned) [23 - slow, 5′-O-[cyclo-3,5-Di-(tert-butyl)-6-fluoroSaligenyl]-3′-deoxy-3′-fluorothymidine Monophosphate] | 42.6 |  |
| CC(C)(C)c1cc(C(C)(C)C)c2c(c1F)COP(=O)(OCC1OC(n3cc(I)c(=O)[nH]c3=O)CC1F)O2 (single isomer, unassigned) [24 - fast, 5-Iodo-5′-O-[cyclo-3,5-Di-(tert-butyl)-6-fluoroSaligenyl]-3′-fluoro-2′,3′-dideoxyuridine Monophosphate] | 549 |  |
| CC(C)(C)c1cc(C(C)(C)C)c2c(c1F)COP(=O)(OCC1OC(n3cc(I)c(=O)[nH]c3=O)CC1F)O2 (single isomer, unassigned) [24 - slow, 5-Iodo-5′-O-[cyclo-3,5-Di-(tert-butyl)-6-fluoroSaligenyl]-3′-fluoro-2′,3′-dideoxyuridine Monophosphate] | 19.8 |  |
| CC(C)(C)c1cc(C(C)(C)C)c2c(c1F)COP(=O)(OC[C@H]1O[C@@H](n3cc(I)c(=O)[nH]c3=O)C[C@@H]1O)O2 (stereo partly drawn) [8 - slow, 5-Iodo-5′-O-[cyclo-3,5-di-(tert-butyl)-6-fluoroSaligenyl]-2′-deoxyuridine Monophosphate] |  | IC50 (human BChE; read-out: IC50): 50.1 nM |
| Cc1cccc2c1OP(=O)(OC[C@H]1O[C@@H](n3cc([125I])c(=O)[nH]c3=O)C[C@@H]1O)OC2 (stereo partly drawn) [Compound 7b, 5-[^125I]-Iodo-5′-O-cyclo(3-methylSaligenyl)-2′-deoxyuridine Monophosphate] |  | whole body retention, median (IP OVCAR-3 tumors): 1.25 % ID; whole body retention (IP OVCAR-3 tumors): 1.21 (0.12) % ID; reduction in solid tumor deposits as compared to ^125IUdR (IP OVCAR-3 tumors; diastereomeric mixtures IP, total average 0.58 mCi, 7 weeks after first dose): ~50%; tumor retention compared to ^125IUdR (IP OVCAR-3 tumors; necropsy 4 weeks after the boost dose): significantly higher compared to ^125IUdR |
| CC(C)(C)c1cc(C(C)(C)C)c2c(c1F)COP(=O)(OC[C@H]1O[C@@H](n3cc([125I])c(=O)[nH]c3=O)C[C@@H]1O)O2 (stereo partly drawn) [Compound 8b, 5-[^125I]-Iodo-5′-O-[cyclo-3,5-di-(tert-butyl)-6-fluoroSaligenyl]-2′-deoxyuridine Monophosphate] |  | clearance from blood and normal tissues ([1]; IV administration): very favorable blood clearance curve; major site of normal tissue uptake ([1]; biodistribution data): liver is the major site of the normal tissue uptake |
| O=c1[nH]c(=O)n([C@H]2C[C@H](O)[C@@H](CO)O2)cc1[125I] [^125IUdR, 5-[^125I]-iodo-2′-deoxyuridine, reference compound] |  | whole body retention, median (IP OVCAR-3 tumors): 1.08 % ID; whole body retention (IP OVCAR-3 tumors): 0.97 (0.11) % ID |
